Results as given in PubChem BioAssay (NCI).
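Briefly, cells in 96-well plates were exposed to five compound concentrations for 48 h, and endpoints were estimated by linear interpolation. GI50: concentration for 50% inhibition of growth. At the TGI there is no net growth.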

Tests used:
Assay in all cases: NCI-60 cell line screen, 48 h; in the data active means GI50 below about 0.43 µM; inactive means the rest
786-0 renal = test system: 786-0 renal
A498 renal = test system: A498 renal
A549 NSCLC = test system: A549 NSCLC
ACHN renal = test system: ACHN renal
BT-549 breast = test system: BT-549 breast
CAKI-1 renal = test system: CAKI-1 renal
CCRF-CEM leukemia = test system: CCRF-CEM leukemia
COLO 205 colon = test system: COLO 205 colon
DU-145 prostate = test system: DU-145 prostate
EKVX NSCLC = test system: EKVX NSCLC
HCC-2998 colon = test system: HCC-2998 colon
HCT-116 colon = test system: HCT-116 colon
HCT-15 colon = test system: HCT-15 colon
HL-60(TB) leukemia = test system: HL-60(TB) leukemia
HOP-62 NSCLC = test system: HOP-62 NSCLC
HOP-92 NSCLC = test system: HOP-92 NSCLC
HS 578T breast = test system: HS 578T breast
HT29 colon = test system: HT29 colon
IGROV1 ovarian = test system: IGROV1 ovarian
K-562 leukemia = test system: K-562 leukemia
KM12 colon = test system: KM12 colon
LOX IMVI melanoma = test system: LOX IMVI melanoma
M14 melanoma = test system: M14 melanoma
MALME-3M melanoma = test system: MALME-3M melanoma
MCF7 breast = test system: MCF7 breast
MDA-MB-231 breast = test system: MDA-MB-231 breast
MDA-MB-435 = test system: MDA-MB-435
MDA-N = test system: MDA-N
MOLT-4 leukemia = test system: MOLT-4 leukemia
NCI-H226 lung = test system: NCI-H226 lung
NCI-H23 lung = test system: NCI-H23 lung
NCI-H460 lung = test system: NCI-H460 lung
NCI-H522 lung = test system: NCI-H522 lung
NCI/ADR-RES ovarian = test system: NCI/ADR-RES ovarian
OVCAR-3 ovarian = test system: OVCAR-3 ovarian
OVCAR-4 ovarian = test system: OVCAR-4 ovarian
OVCAR-5 ovarian = test system: OVCAR-5 ovarian
OVCAR-8 ovarian = test system: OVCAR-8 ovarian
PC-3 prostate = test system: PC-3 prostate
RPMI-8226 leukemia = test system: RPMI-8226 leukemia
RXF 393 renal = test system: RXF 393 renal
SF-268 CNS = test system: SF-268 CNS
SF-295 CNS = test system: SF-295 CNS
SF-539 CNS = test system: SF-539 CNS
SK-MEL-2 melanoma = test system: SK-MEL-2 melanoma
SK-MEL-28 melanoma = test system: SK-MEL-28 melanoma
SK-MEL-5 melanoma = test system: SK-MEL-5 melanoma
SK-OV-3 ovarian = test system: SK-OV-3 ovarian
SN12C renal = test system: SN12C renal
SNB-19 CNS = test system: SNB-19 CNS
SNB-75 CNS = test system: SNB-75 CNS
SR leukemia = test system: SR leukemia
SW-620 colon = test system: SW-620 colon
T-47D breast = test system: T-47D breast
TK-10 renal = test system: TK-10 renal
UACC-257 melanoma = test system: UACC-257 melanoma
UACC-62 melanoma = test system: UACC-62 melanoma
UO-31 renal = test system: UO-31 renal

C[C@@H]1CCC2[C@@H](C)[C@@H](OC3CCC(O)CC3)OC3O[C@@]4(C)CCC1[C@]32OO4 (stereo partly specified)
> 100 µM: TGI (786-0 renal) | TGI (A498 renal) | TGI (A549 NSCLC) | TGI (ACHN renal) | TGI (BT-549 breast) | TGI (CAKI-1 renal) | TGI (CCRF-CEM leukemia) | TGI (DU-145 prostate) | TGI (EKVX NSCLC) | TGI (HCC-2998 colon) | TGI (HCT-116 colon) | TGI (HCT-15 colon) | TGI (HL-60(TB) leukemia) | TGI (HOP-62 NSCLC) | TGI (HOP-92 NSCLC) | TGI (HS 578T breast) | TGI (HT29 colon) | TGI (IGROV1 ovarian) | TGI (K-562 leukemia) | TGI (KM12 colon) | TGI (LOX IMVI melanoma) | TGI (M14 melanoma) | TGI (MALME-3M melanoma) | TGI (MCF7 breast) | TGI (MDA-MB-231 breast) | TGI (MDA-MB-435) | TGI (MDA-N) | TGI (MOLT-4 leukemia) | TGI (NCI-H226 lung) | TGI (NCI-H23 lung) | TGI (NCI-H460 lung) | TGI (NCI-H522 lung) | TGI (NCI/ADR-RES ovarian) | TGI (OVCAR-3 ovarian) | TGI (OVCAR-4 ovarian) | TGI (OVCAR-5 ovarian) | TGI (OVCAR-8 ovarian) | TGI (PC-3 prostate) | TGI (RPMI-8226 leukemia) | TGI (RXF 393 renal) | TGI (SF-268 CNS) | TGI (SF-295 CNS) | TGI (SF-539 CNS) | TGI (SK-MEL-2 melanoma) | TGI (SK-MEL-28 melanoma) | TGI (SK-MEL-5 melanoma) | TGI (SK-OV-3 ovarian) | TGI (SN12C renal) | TGI (SNB-19 CNS) | TGI (SNB-75 CNS) | TGI (SR leukemia) | TGI (SW-620 colon) | TGI (T-47D breast) | TGI (TK-10 renal) | TGI (UACC-257 melanoma) | TGI (UACC-62 melanoma) | TGI (UO-31 renal)
inactive: GI50 (786-0 renal) > 100 µM | GI50 (A498 renal) > 100 µM | GI50 (A549 NSCLC) 67.1 µM | GI50 (ACHN renal) 67.2 µM | GI50 (BT-549 breast) > 100 µM | GI50 (CAKI-1 renal) 95.9 µM | GI50 (CCRF-CEM leukemia) 37.8 µM | GI50 (COLO 205 colon) 8.83 µM | GI50 (DU-145 prostate) > 100 µM | GI50 (EKVX NSCLC) 32.5 µM | GI50 (HCC-2998 colon) > 100 µM | GI50 (HCT-116 colon) 71.2 µM | GI50 (HCT-15 colon) 3.61 µM | GI50 (HL-60(TB) leukemia) 4.35 µM | GI50 (HOP-62 NSCLC) > 100 µM | GI50 (HOP-92 NSCLC) 23.1 µM | GI50 (HS 578T breast) 90.2 µM | GI50 (HT29 colon) 97.4 µM | GI50 (IGROV1 ovarian) > 100 µM | GI50 (K-562 leukemia) 26.8 µM | GI50 (KM12 colon) 51.6 µM | GI50 (LOX IMVI melanoma) 24.5 µM | GI50 (M14 melanoma) > 100 µM | GI50 (MALME-3M melanoma) > 100 µM | GI50 (MCF7 breast) 38.5 µM | GI50 (MDA-MB-231 breast) > 100 µM | GI50 (MDA-MB-435) > 100 µM | GI50 (MDA-N) > 100 µM | GI50 (MOLT-4 leukemia) 10.1 µM | GI50 (NCI-H226 lung) > 100 µM | GI50 (NCI-H23 lung) 96.7 µM | GI50 (NCI-H460 lung) > 100 µM | GI50 (NCI-H522 lung) 38.5 µM | GI50 (NCI/ADR-RES ovarian) 39.9 µM | GI50 (OVCAR-3 ovarian) 66.7 µM | GI50 (OVCAR-4 ovarian) 46.4 µM | GI50 (OVCAR-5 ovarian) 82.4 µM | GI50 (OVCAR-8 ovarian) 16.1 µM | GI50 (PC-3 prostate) 23.9 µM | GI50 (RPMI-8226 leukemia) 7.04 µM | GI50 (RXF 393 renal) > 100 µM | GI50 (SF-268 CNS) 76.5 µM | GI50 (SF-295 CNS) 45.8 µM | GI50 (SF-539 CNS) > 100 µM | GI50 (SK-MEL-2 melanoma) 92.6 µM | GI50 (SK-MEL-28 melanoma) > 100 µM | GI50 (SK-MEL-5 melanoma) 36.3 µM | GI50 (SK-OV-3 ovarian) > 100 µM | GI50 (SN12C renal) > 100 µM | GI50 (SNB-19 CNS) > 100 µM | GI50 (SNB-75 CNS) > 100 µM | GI50 (SR leukemia) 7.84 µM | GI50 (SW-620 colon) > 100 µM | GI50 (T-47D breast) 19.9 µM | GI50 (TK-10 renal) 36.8 µM | GI50 (UACC-257 melanoma) > 100 µM | GI50 (UACC-62 melanoma) 72 µM | GI50 (UO-31 renal) 6.3 µM
32.7 µM: TGI (COLO 205 colon)
